The values that follow come from publication PMC5136371, “Acetylcholinesterase and Cytotoxic Activity of Chemical Constituents of Clutia lanceolata Leaves and its Molecular Docking Study” (Natural Products and Bioprospecting, 2016).

Like-named read-outs stand apart in the source and are kept apart here.

In series [1] the test system is brine shrimp nauplii (Artemia salina). Nature of the series: In vivo cytotoxicity, brine shrimp lethality bioassay. Particulars: 24 h incubation, 10-80 µg/mL, triplicate. On the procedure:
The in vivo cytotoxicity of compounds (1–4) isolated from the leaves of C. lanceolata was evaluated to brine shrimp nauplii using vincristine sulfate as standard (Fig. S1 †ESI). It is one of the most convenient methods to determine the cytotoxicity of any compound.
Brine shrimp lethality bioassay is commonly used in the bioassay for the bioactive compounds [44, 45]. The in vivo cytotoxicity assay was performed on brine shrimp nauplii (Artemia salina) in accordance with the Mayer method. The egg of brine shrimp were hatched in a tank filled with artificially prepared sea water (brine, 3.8 % NaCl) exposed to incandescent light. Air was supplied at the bottom of the tank with the help of air supplier fitted with tube to keep the shrimps in uniform motion. The assay was performed 24 h after hatching and no food supplement was given during the hatching and experimental periods. A test sample (5.0 mg) was dissolved in 1 mL DMSO to obtain stock solution of 5 mg/mL. Different concentrations of test samples were obtained from stock solution and placed in separate vials, and the volume of each vial was made up to 5 mL with brine to obtain the desired final concentrations (10, 20, 40, 60 and 80 µg/mL). The negative control was prepared in the same manner without the samples. Vincristine sulphate was used as a standard anti-cancer drug. Thirty brine shrimp nauplii were then placed in each vial. After 24 h of incubation, the vials were observed using a magnifying glass, and the number of survivors in each vial were counted and noted. The LD50 values were calculated using the plot of percentage of mortality and logarithm of concentration. All tests were performed in triplicate and expressed as mean.

The nature of series [2]: Solubility and air stability of the isolated crystals. As to conditions: for solubility in organic solvents: all common organic solvents; for stability in air: once isolated. The class given is physicochemical.
In another series the target is T1, human recombinant AChE (Homo sapiens, UniProt P22303).
T1 construct: purchased Sigma-Aldrich
T1 sequence (P22303 32-614): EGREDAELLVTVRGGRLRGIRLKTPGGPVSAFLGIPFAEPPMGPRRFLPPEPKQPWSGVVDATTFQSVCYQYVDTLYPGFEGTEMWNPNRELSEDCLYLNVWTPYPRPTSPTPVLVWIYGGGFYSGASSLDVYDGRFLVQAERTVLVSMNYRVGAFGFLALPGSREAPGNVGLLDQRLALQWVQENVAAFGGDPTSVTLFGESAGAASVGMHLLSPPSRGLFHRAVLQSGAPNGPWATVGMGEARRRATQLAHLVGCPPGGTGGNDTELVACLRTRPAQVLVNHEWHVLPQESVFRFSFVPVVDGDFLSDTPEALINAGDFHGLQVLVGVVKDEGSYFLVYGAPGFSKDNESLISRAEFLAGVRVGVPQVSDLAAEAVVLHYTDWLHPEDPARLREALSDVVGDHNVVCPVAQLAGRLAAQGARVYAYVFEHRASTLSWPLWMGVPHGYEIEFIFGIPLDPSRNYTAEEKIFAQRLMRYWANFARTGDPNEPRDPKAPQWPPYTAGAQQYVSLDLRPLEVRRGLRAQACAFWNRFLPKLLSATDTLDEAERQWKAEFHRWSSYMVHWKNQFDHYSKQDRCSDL
Description: biochemical. On the procedure: AChE stock solution was prepared by dissolving human recombinant AChE (EC: 3.1.1.7) lyophilized powder (Sigma-Aldrich) in 0.1 M phosphate buffer (pH = 8.0) containing Triton X-100 (0.1 %). […] Increasing concentrations of the tested inhibitor were added to the assay solution and pre-incubated for 5 min at 37 °C with the enzyme followed by the addition of the substrate. Initial rate assays were performed at 37 °C using a Jasco V-530 double beam Spectrophotometer. The absorbance value at 412 nm was recorded for 5 min and enzyme activity was calculated from the slope of the obtained linear trend. Assays were carried out with a blank containing all components except AChE to account for the non-enzymatic reaction. The reaction rates were compared and the percent inhibition due to the presence of tested inhibitors was calculated. […] Tacrine was used as a standard inhibitor.

Turning to `COc1cc(/C=C/C(=O)/C=C(O)/C=C/c2ccc(O)c(OC)c2)ccc1O` [Compound 4, 5-hydroxy-1,7-bis(4-hydroxy-3-methoxyphenyl)hepta-1,4,6-trien-3-one], the LD50 value in series [1] is 11.66 ± 0.04 µg/mL. This molecule also showed an LD50 value in series [1] (listed as compound 4) of 11.66 µg/mL. Further, in series [2], the “solubility in organic solvents” value was “soluble in all common organic solvents”, the stability in air entry is recorded as “air-stable” and the solubility in water result is reported as “insoluble in water”.

In the case of `CC[C@]1(O)C[C@H]2CN(CCc3c([nH]c4ccccc34)[C@@](C(=O)OC)(c3cc4c(cc3OC)N(C=O)[C@H]3[C@@](O)(C(=O)OC)[C@H](OC(C)=O)[C@]5(CC)C=CCN6CC[C@]43[C@@H]65)C2)C1` [Vincristine sulphate, reference compound], the LD50 value stood at 8.84 ± 0.01 µg/mL in series [1] and 8.84 µg/mL in series [1] (listed as vincristine sulfate).

In series [1], `Oc1ccc2ccccc2c1-c1c(O)ccc2ccccc12` [Compound 2, 2,2′-dihydroxy-1,1′-binaphthyl] registered an LD50 value of 17.78 ± 0.05 µg/mL. Further, in series [1] (listed as compound 2), the LD50 value turned out to be 17.78 µg/mL. The concentration for half-maximal inhibition (IC50) (as a rule, the point on the concentration scale where inhibition reaches its midpoint) at human recombinant AChE stood at 21.9 ± 0.05 µM. In addition, in series [2], the “solubility in organic solvents” value is on record as “soluble in all common organic solvents”, the stability in air result is reported as “air-stable” and the solubility in water entry was “insoluble in water”.

Take `Cc1cc(O)c2c(c1)C(=O)c1cc(O)cc(O)c1C2=O` [Compound 3, 1,3,8-trihydroxy-6-methylanthracene-9,10-dione]: the figures for the LD50 value in series [1] and in series [1] (listed as compound 3) were 13.80 ± 0.03 µg/mL and 13.80 µg/mL, respectively. The IC50 on human recombinant AChE is 14.2 ± 0.06 µM.

On to `Cc1c(C(=O)O)ccc(O)c1O` [Compound 1, 3,4-dihydroxy-2-methylbenzoic acid], for which the LD50 value in series [1] came out at 23.40 ± 0.02 µg/mL; in series [1] (listed as compound 1), 23.40 µg/mL. Also, the half-maximal inhibitory concentration (IC50) at human recombinant AChE (human recombinant AChE, pH 8.0, 37 °C, substrate acetylthiocholine iodide 550 µM, triplicate, read-out: IC50 ± SEM for hAChE inhibition) turned out to be 23.7 ± 0.02 µM.
